Reference: paper PMC8632988, “Inhibition of SYK and cSrc kinases can protect bone and cartilage in preclinical models of osteoarthritis and rheumatoid arthritis” (Scientific Reports, 2021)
Values joined by “and” are separate entries in the source; they are usually repeats but may differ in a detail not shown here. Equal values may be shown once. Read-outs that look alike come from different tables or passages of the source.

Test: Pharmacokinetics after single oral administration to rats
Assay type: in vivo, rat
Settings: for concentration at 0.25 h / concentration at 0.5 h / concentration at 1 h / concentration at 2 h / concentration at 4 h / concentration at 8 h / concentration at 24 h / concentration at 48 h: oral
Experimental: Experiments were performed at ChemPartner, Shanghai, China and approved by Institutional Ethics Committee (IEC) of ChemPartner. Male Wistar 10–12 weeks old rats with body weights of 185–220 g and male New Zealand rabbits with body weights of 2.0–2.3 kg were purchased from Shanghai SLAC Laboratory Animal Co., Ltd. MT-SYK-03 was administered to the three groups of rats (six rats per group) via oral gavage at 10 mL/kg concentration, and in rabbits 5 mL/kg concentration. Blood samples were kept on ice and centrifuged (2000 g, 4 ℃, 5 min) within 15 min post sampling.

[1] = Table S6, 100 mg/kg PO, male Wistar rats, plasma, individual Rat#1-6
[2] = Table S7, 100 mg/kg PO, male Wistar rats, plasma, individual Rat#7-12
[3] = Table S8, 200 mg/kg PO, male Wistar rats, plasma, individual Rat#13-18

Structure (SMILES): COc1cc(Nc2ncnc(Nc3cc4c(cn3)NC(=O)C(C)(C)O4)n2)cc(OC)c1OC [MT-SYK-03]
- Plasma concentration (Table S6, 100 mg/kg PO, male Wistar rats, 0.25 h, individual Rat#1-6): 257 ng/mL and 127 ng/mL and 313 ng/mL and 251 ng/mL and 240 ng/mL and 283 ng/mL
- Plasma concentration (Table S6, 100 mg/kg PO, male Wistar rats, 0.5 h, individual Rat#1-6): 331 ng/mL and 166 ng/mL and 419 ng/mL and 280 ng/mL and 345 ng/mL and 375 ng/mL
- Plasma concentration (Table S6, 100 mg/kg PO, male Wistar rats, 1 h, individual Rat#1-6): 470 ng/mL and 220 ng/mL and 487 ng/mL and 367 ng/mL and 392 ng/mL and 483 ng/mL
- Plasma concentration (Table S6, 100 mg/kg PO, male Wistar rats, 2 h, individual Rat#1-6): 529 ng/mL and 209 ng/mL and 501 ng/mL and 372 ng/mL and 256 ng/mL and 359 ng/mL
- Plasma concentration (Table S6, 100 mg/kg PO, male Wistar rats, 4 h, individual Rat#1-6): 196 ng/mL and 78.0 ng/mL and 171 ng/mL and 170 ng/mL and 226 ng/mL and 206 ng/mL
- Plasma concentration (Table S6, 100 mg/kg PO, male Wistar rats, 8 h, individual Rat#1-6): 47.2 ng/mL and 31.2 ng/mL and 92.6 ng/mL and 41.6 ng/mL and 88.8 ng/mL and 43.5 ng/mL
- Plasma concentration (Table S6, 100 mg/kg PO, male Wistar rats, 24 h, individual Rat#1-6): 0.818 ng/mL and BQL (2×) and 17.7 ng/mL and 1.57 ng/mL and 16.5 ng/mL
- Plasma concentration (Table S6, 100 mg/kg PO, male Wistar rats, 48 h, individual Rat#1-6): BQL (4×) and 1.55 ng/mL
- AUCINF [1]: 2434 ng·h/mL and 971 ng·h/mL and 3948 ng·h/mL and 2253 ng·h/mL and 2452 ng·h/mL and 2451 ng·h/mL
- AUClast [1]: 2423 ng·h/mL and 869 ng·h/mL and 3933 ng·h/mL and 2069 ng·h/mL and 2446 ng·h/mL and 2297 ng·h/mL
- Cmax [1]: 529 ng/mL and 220 ng/mL and 501 ng/mL and 372 ng/mL and 392 ng/mL and 483 ng/mL
- Terminal t1/2 [1]: 7.83 h and 2.28 h and 6.60 h and 7.22 h and 2.78 h and 6.45 h
- Plasma concentration (Table S7, 100 mg/kg PO, male Wistar rats, 8 h, individual Rat#7-12): 87.7 ng/mL and 152 ng/mL and 64.3 ng/mL and 178 ng/mL and 89.2 ng/mL and 82.6 ng/mL
- Plasma concentration (Table S7, 100 mg/kg PO, male Wistar rats, 24 h, individual Rat#7-12): 32.8 ng/mL and 4.94 ng/mL and 6.04 ng/mL and 1.11 ng/mL and 1.56 ng/mL
- Plasma concentration (Table S7, 100 mg/kg PO, male Wistar rats, 48 h, individual Rat#7-12): BQL
- AUCINF [2]: 4850 ng·h/mL and 3276 ng·h/mL and 4883 ng·h/mL and 4456 ng·h/mL and 3930 ng·h/mL
- AUClast [2]: 4843 ng·h/mL and 3238 ng·h/mL and 4878 ng·h/mL and 4452 ng·h/mL and 3910 ng·h/mL
- Cmax [2]: 1030 ng/mL and 770 ng/mL and 859 ng/mL and 876 ng/mL and 824 ng/mL
- Terminal t1/2 [2]: 5.58 h and 4.86 h and 3.71 h and 2.36 h and 2.34 h and 5.52 h
- Plasma concentration (Table S8, 200 mg/kg PO, male Wistar rats, 48 h, individual Rat#13-18): BQL
- AUCINF [3]: 6063 ng·h/mL and 6845 ng·h/mL and 7115 ng·h/mL and 6299 ng·h/mL and 10096 ng·h/mL
- AUClast [3]: 6055 ng·h/mL and 6836 ng·h/mL and 7107 ng·h/mL and 6076 ng·h/mL and 10087 ng·h/mL
- Cmax [3]: 1430 ng/mL and 1360 ng/mL and 1370 ng/mL and 998 ng/mL and 1320 ng/mL
- Terminal t1/2 [3]: 6.31 h and 5.70 h and 2.52 h and 2.40 h and 8.67 h and 4.91 h
- concentration at 0.25 h (male, Wistar, rat, plasma, 100 mg/kg, Table S6, 100 mg/kg PO, male Wistar rats, 0.25 h, mean of Rat#1-6, read-out: Plasma concentration, Mean): 245 ng/mL
- concentration at 0.5 h (male, Wistar, rat, plasma, 100 mg/kg, Table S6, 100 mg/kg PO, male Wistar rats, 0.5 h, mean of Rat#1-6, read-out: Plasma concentration, Mean): 319 ng/mL
- concentration at 1 h (male, Wistar, rat, plasma, 100 mg/kg, Table S6, 100 mg/kg PO, male Wistar rats, 1 h, mean of Rat#1-6, read-out: Plasma concentration, Mean): 403 ng/mL
- concentration at 2 h (male, Wistar, rat, plasma, 100 mg/kg, Table S6, 100 mg/kg PO, male Wistar rats, 2 h, mean of Rat#1-6, read-out: Plasma concentration, Mean): 371 ng/mL
- concentration at 4 h (male, Wistar, rat, plasma, 100 mg/kg, Table S6, 100 mg/kg PO, male Wistar rats, 4 h, mean of Rat#1-6): 175 ng/mL
- concentration at 8 h (male, Wistar, rat, plasma, 100 mg/kg, Table S6, 100 mg/kg PO, male Wistar rats, 8 h, mean of Rat#1-6): 57.5 ng/mL
- concentration at 24 h (male, Wistar, rat, plasma, 100 mg/kg, Table S6, 100 mg/kg PO, male Wistar rats, 24 h, mean of Rat#1-6): 9.15 ng/mL
- concentration at 48 h (male, Wistar, rat, plasma, 100 mg/kg, Table S6, 100 mg/kg PO, male Wistar rats, 48 h, individual Rat#1-6, read-out: Plasma concentration): 0.984 ng/mL
- concentration at 48 h (male, Wistar, rat, plasma, 100 mg/kg, Table S6, 100 mg/kg PO, male Wistar rats, 48 h, mean of Rat#1-6, read-out: Plasma concentration, Mean): 1.27 ng/mL
- concentration at 0.25 h (male, Wistar, rat, plasma, 100 mg/kg, Table S7, 100 mg/kg PO, male Wistar rats, 0.25 h, individual Rat#7-12, read-out: Plasma concentration): 400 ng/mL
- concentration at 0.25 h (male, Wistar, rat, plasma, 100 mg/kg, Table S7, 100 mg/kg PO, male Wistar rats, 0.25 h, mean of Rat#7-12, read-out: Plasma concentration, Mean): 415 ng/mL
- concentration at 0.5 h (male, Wistar, rat, plasma, 100 mg/kg, Table S7, 100 mg/kg PO, male Wistar rats, 0.5 h, individual Rat#7-12, read-out: Plasma concentration): 716 ng/mL
- concentration at 0.5 h (male, Wistar, rat, plasma, 100 mg/kg, Table S7, 100 mg/kg PO, male Wistar rats, 0.5 h, mean of Rat#7-12, read-out: Plasma concentration, Mean): 679 ng/mL
- concentration at 1 h (male, Wistar, rat, plasma, 100 mg/kg, Table S7, 100 mg/kg PO, male Wistar rats, 1 h, individual Rat#7-12, read-out: Plasma concentration): 830 ng/mL
- concentration at 1 h (male, Wistar, rat, plasma, 100 mg/kg, Table S7, 100 mg/kg PO, male Wistar rats, 1 h, mean of Rat#7-12, read-out: Plasma concentration, Mean): 870 ng/mL
- concentration at 2 h (male, Wistar, rat, plasma, 100 mg/kg, Table S7, 100 mg/kg PO, male Wistar rats, 2 h, individual Rat#7-12, read-out: Plasma concentration): 519 ng/mL
- concentration at 2 h (male, Wistar, rat, plasma, 100 mg/kg, Table S7, 100 mg/kg PO, male Wistar rats, 2 h, mean of Rat#7-12, read-out: Plasma concentration, Mean): 602 ng/mL
- concentration at 4 h (male, Wistar, rat, plasma, 100 mg/kg, Table S7, 100 mg/kg PO, male Wistar rats, 4 h, mean of Rat#7-12): 384 ng/mL
- concentration at 8 h (male, Wistar, rat, plasma, 100 mg/kg, Table S7, 100 mg/kg PO, male Wistar rats, 8 h, mean of Rat#7-12): 109 ng/mL
- concentration at 24 h (male, Wistar, rat, plasma, 100 mg/kg, Table S7, 100 mg/kg PO, male Wistar rats, 24 h, mean of Rat#7-12): 8 ng/mL
- concentration at 48 h (male, Wistar, rat, plasma, 100 mg/kg, Table S7, 100 mg/kg PO, male Wistar rats, 48 h, mean of Rat#7-12, read-out: Plasma concentration, Mean): 1.79 ng/mL
- concentration at 0.25 h (male, Wistar, rat, plasma, 200 mg/kg, Table S8, 200 mg/kg PO, male Wistar rats, 0.25 h, individual Rat#13-18, read-out: Plasma concentration): 489 ng/mL
- concentration at 0.25 h (male, Wistar, rat, plasma, 200 mg/kg, Table S8, 200 mg/kg PO, male Wistar rats, 0.25 h, mean of Rat#13-18, read-out: Plasma concentration, Mean): 425 ng/mL
- concentration at 0.5 h (male, Wistar, rat, plasma, 200 mg/kg, Table S8, 200 mg/kg PO, male Wistar rats, 0.5 h, individual Rat#13-18, read-out: Plasma concentration): 858 ng/mL
- concentration at 0.5 h (male, Wistar, rat, plasma, 200 mg/kg, Table S8, 200 mg/kg PO, male Wistar rats, 0.5 h, mean of Rat#13-18, read-out: Plasma concentration, Mean): 892 ng/mL
- concentration at 1 h (male, Wistar, rat, plasma, 200 mg/kg, Table S8, 200 mg/kg PO, male Wistar rats, 1 h, individual Rat#13-18, read-out: Plasma concentration): 984 ng/mL
- concentration at 1 h (male, Wistar, rat, plasma, 200 mg/kg, Table S8, 200 mg/kg PO, male Wistar rats, 1 h, mean of Rat#13-18, read-out: Plasma concentration, Mean): 1220 ng/mL
- concentration at 2 h (male, Wistar, rat, plasma, 200 mg/kg, Table S8, 200 mg/kg PO, male Wistar rats, 2 h, individual Rat#13-18, read-out: Plasma concentration): 1180 ng/mL
- concentration at 2 h (male, Wistar, rat, plasma, 200 mg/kg, Table S8, 200 mg/kg PO, male Wistar rats, 2 h, mean of Rat#13-18, read-out: Plasma concentration, Mean): 1040 ng/mL
- concentration at 4 h (male, Wistar, rat, plasma, 200 mg/kg, Table S8, 200 mg/kg PO, male Wistar rats, 4 h, mean of Rat#13-18): 725 ng/mL
- concentration at 8 h (male, Wistar, rat, plasma, 200 mg/kg, Table S8, 200 mg/kg PO, male Wistar rats, 8 h, mean of Rat#13-18): 206 ng/mL
- concentration at 24 h (male, Wistar, rat, plasma, 200 mg/kg, Table S8, 200 mg/kg PO, male Wistar rats, 24 h, mean of Rat#13-18): 4.99 ng/mL
- concentration at 48 h (male, Wistar, rat, plasma, 200 mg/kg, Table S8, 200 mg/kg PO, male Wistar rats, 48 h, mean of Rat#13-18, read-out: Plasma concentration, Mean): 5.44 ng/mL
- AUC(0-inf) (male, Wistar, rat, plasma, po, 30 mg/kg, rats, single oral 30 mg/kg, read-out: AUCinf): 2420 ± 945 ng·h/mL
- Cmax (male, Wistar, rat, plasma, po, 30 mg/kg, rats, single oral 30 mg/kg, read-out: Cmax): 416 ± 114 ng/mL
- Tmax (male, Wistar, rat, plasma, po, 30 mg/kg, rats, single oral 30 mg/kg, read-out: Tmax): 1.5 ± 0.548 h
